Tests used:
Experiment in all cases: relative viability (nuclei count vs DMSO), 5 days (fraction); higher = more cells survive
[1] = compound: CC1(C)CNc2cc(NC(=O)c3cccnc3NCc3ccncc3)ccc21 [Motesanib] + C[C@]1(O)C[C@@H](c2nc(-c3ccc4ccc(-c5ccccc5)nc4c3)c3c(N)nccn32)C1 [Linsitinib] (partner 1 µM)
Summary of the method: (§1)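 Each reported value is a median over duplicate plates. It expresses relative viability: treated-well nuclei count divided by vehicle-well nuclei count. Lung cancer cell lines in 1536-well plates were dosed by pin tool a day after seeding, alone with one drug or with a fixed anchor-drug dose plus five library-drug doses (not always all listed) in √10 steps, and nuclei were counted after 5 days.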

[2] = compound: CC1(C)CNc2cc(NC(=O)c3cccnc3NCc3ccncc3)ccc21 [Motesanib] + Cc1nc(Nc2ncc(C(=O)Nc3c(C)cccc3Cl)s2)cc(N2CCN(CCO)CC2)n1 [Dasatinib] (partner 0.075 µM)
Summary of the method: as §1

[3] = compound: CC1(C)CNc2cc(NC(=O)c3cccnc3NCc3ccncc3)ccc21 [Motesanib] + Nc1nc2[nH]cc(CCc3ccc(C(=O)N[C@@H](CCC(=O)O)C(=O)O)cc3)c2c(=O)[nH]1 [Pemetrexed] (partner 0.2 µM)
Summary of the method: as §1

[4] = compound: C[C@@]1(C(=O)Nc2ccc(F)nc2)CCCN1c1nc(Nc2cc(C3CC3)n[nH]2)c2cccn2n1 + CS(=O)(=O)CCNCc1ccc(-c2ccc3ncnc(Nc4ccc(OCc5cccc(F)c5)c(Cl)c4)c3c2)o1 [Lapatinib] (partner 2 µM)
Summary of the method: as §1

Cell Line	relative viability ([1]; first compound 0.01 µM)	relative viability ([1]; first compound 0.03162 µM)	relative viability ([1]; first compound 0.1 µM)	relative viability ([1]; first compound 0.3162 µM)	relative viability ([1]; first compound 1 µM)	relative viability ([2]; first compound 0.01 µM)	relative viability ([2]; first compound 0.03162 µM)	relative viability ([2]; first compound 0.1 µM)	relative viability ([2]; first compound 0.3162 µM)	relative viability ([2]; first compound 1 µM)	relative viability ([3]; first compound 0.01 µM)	relative viability ([3]; first compound 0.03162 µM)	relative viability ([3]; first compound 0.1 µM)	relative viability ([3]; first compound 0.3162 µM)	relative viability ([3]; first compound 1 µM)	relative viability ([4]; first compound 0.04 µM)	relative viability ([4]; first compound 0.1265 µM)	relative viability ([4]; first compound 0.4 µM)	relative viability ([4]; first compound 1.265 µM)
HARA	0.967	0.909	1.02	1.09	1.14	0.225	0.2	0.215	0.303	0.3	0.194	0.207	0.128	0.185	0.212	0.409	0.466	0.248	0.244
NCI-H596	1.1	0.937	1.08	1.12	1.08	0.651	0.543	0.534	0.563	0.53	0.509	0.503	0.444	0.306	0.358	1.04	0.849	0.848	0.783
NCI-H1563	1.26	1.19	1.21	1.14	1.21	0.424	0.44	0.447	0.473	0.421	0.679	0.82	0.871	0.644	0.794	1.1	0.921	0.755	0.723
NCI-H23	0.582	0.609		0.56	0.527	0.881	0.737	0.662	0.892	0.746	0.645	0.624	0.518	0.447	0.545	0.958	0.496	0.695	0.6
LCLC-97TM1	0.171	0.164	0.2	0.182	0.2	0.838	0.801	0.797	0.86	0.773	0.175	0.153	0.151	0.16	0.173	0.572	0.301	0.172	0.163
EPLC-272H	1.23	1.26	1.26	1.24	1.38	0.344	0.405		0.421	0.287	0.656	0.285	0.254	0.273	0.243	0.885	0.668	0.601	0.72
NCI-H1915	1.09	1.19	1.11	1.16	1.08	0.32	0.329	0.303	0.312	0.279	0.54	0.484	0.451	0.463	0.442	0.964	0.999	1.01	0.994
NCI-H2405		1	0.866	0.967	0.993		0.196	0.232	0.283	0.208	1.05	1.11	1.02	1.11	1.02	0.762	0.706	0.76	0.744
NCI-H322M	1.03	0.91	0.913	0.92	0.98	0.234	0.216	0.268	0.26	0.262	0.681	0.627	0.556	0.691	0.605	0.533	0.441	0.374	0.341

From the supplement of paper PMC10307832
